Assay results taken from US10933009B2, “Formulations and methods for treating dermatological disorders and diseases” (VAPOGENIX, INC., priority 2011, dated 2021).

Experiment: Isoflurane remaining in uncapped vials, determined by weighing over time
Type: physicochemical
Procedure: In the Examples that follow, the stability of isoflurane in the described compositions was determined in two ways. First, the compositions were examined for the presence of phase separation at the macroscopic level. Secondly, isoflurane content of the compositions was determined by weighing the remaining isoflurane in the composition when they were left uncapped over time. Briefly, glass vials were filled with 5-10 ml of the composition vehicle and then weighed; one of them received only vehicle (i.e., no isoflurane) and served as control. The other vials received varying amounts of isoflurane. They were left uncapped in the hood. Over time, the vials were weighed to see if the isoflurane stayed in the composition or had evaporated. The amount evaporated over time in the vehicle control was subtracted from that in the isoflurane-containing composition.
The pure form of isoflurane is a volatile anesthetic. In order to assess the volatility of isoflurane, two vials received the indicated amounts of pure form isoflurane. The vials were placed in the chemical fume hood and left uncapped. The vials were weighed at the indicated times to determine the amount of evaporated isoflurane. As it is shown in the table below 0.7893 g isoflurane was evaporated within 3 hours, while 3.4825 g isoflurane took approximately 8 hrs to evaporate completely. These amounts of isoflurane are similar to the amounts of isoflurane that were used to prepare the isoflurane compositions in the Examples that follow.

[1] = pure form of isoflurane 0.7893 g, uncapped vial
[2] = pure form of isoflurane 3.4825 g, uncapped vial

time for isoflurane to evaporate (0.7893 g pure isoflurane, uncapped vial in fume hood): ≤ 3 h
time for isoflurane to evaporate completely (3.4825 g pure isoflurane, uncapped vial in fume hood): approximately 8 hrs
0 h (% remaining iso) (pure form of isoflurane 0.7893 g, uncapped vial in fume hood): 100%
0.25 h (% remaining iso) [1]: 85%
1 h (% remaining iso) [1]: 52%
2 h (% remaining iso) [1]: 14%
3 h (% remaining iso) [1]: 0%
0 h (% remaining iso) (pure form of isoflurane 3.4825 g, uncapped vial in fume hood): 100%
0.25 h (% remaining iso) [2]: 96%
1 h (% remaining iso) [2]: 86%
2 h (% remaining iso) [2]: 75%
3 h (% remaining iso) [2]: 62%
5 h (% remaining iso) (pure form of isoflurane 3.4825 g, uncapped vial, 5 h): 38%
7 h (pure form of isoflurane 3.4825 g, uncapped vial, 7 h): 13%
8 h (pure form of isoflurane 3.4825 g, uncapped vial, 8 h): 3%
Compound: FC(F)OC(Cl)C(F)(F)F (stereo not drawn) [isoflurane]
